US5945453A, “Benzoylphenylurea insecticides to control cockroaches” (Dow AgroSciences LLC, priority 1997, dated 1999)

What was measured:
Format in all cases: in vivo
[1] = test system: German cockroach 2nd instars (Blattella germanica); assay: Continuous, low-dose ingestion exposure (treated cornmeal)
Excerpt: (§1) German cockroach 2nd instars (Blattella germanica)
Continuous, low-dose ingestion exposure (treated cornmeal)

[2] = test system: German cockroach 2nd instars (Blattella germanica); assay: Limited ingestion exposure (48 hr) to treated cornmeal; settings: for LC50, low / LC50, high: 48 hr limited exposure; for LC50, low: 'low' column (also holds the value where only one is printed); for potency versus hexaflumuron: limited exposure; for LC50, high: 'high' column
Excerpt: as §1
Limited ingestion exposure (48 hr) to treated cornmeal

[3] = test system: Cat Flea (Ctenocephalides felis); assay: Continuous exposure of larvae to treated media, impact on subsequent adult emergence; settings: for LC50 / LC90: continuous exposure of larvae, adult emergence
Excerpt: Cat Flea (Ctenocephalides felis)
Continuous exposure of larvae to treated media, impact on subsequent adult emergence

[4] = test system: Subterranean Termite (Reticulitermes flavipes); assay: Continuous exposure (56 days) to treated paper; settings: for performance versus hexaflumuron: Eastern Subterranean termite
Excerpt: (§2) Subterranean Termite (Reticulitermes flavipes)
(§3) Continuous exposure (56 days) to treated paper

[5] = test system: Subterranean Termite (Reticulitermes virginicus); assay: Continuous exposure (56 days) to treated paper; settings: for LT50 (days) for 200 ppm trt / LC50 / speed of action versus hexaflumuron: continuous exposure
Excerpt: Subterranean Termite (Reticulitermes virginicus)
as §3

[6] = test system: Subterranean Termite (Reticulitermes flavipes); assay: Limited exposure (7 days) with mortality determined at 14, 28, 42, and 56 days; settings: for LT50 (days) for 10000 ppm treatment: limited exposure (7 days); for speed of activity, Compound 1 versus hexaflumuron: limited exposure
Excerpt: as §2
Limited exposure (7 days) with mortality determined at 14, 28, 42, and 56 days

[7] = test system: Red Imported Fire Ant (RIFA) (Solenopsis invicta); assay: Laboratory ant bait study, 3-4 day exposure to bait, brood reduction; settings: for Time to Achieve 50% Brood Reduction / Time to Achieve 90% Brood Reduction: RIFA, best results achieved with compound
Procedure: (§4) Laboratory ant bait studies were carried out with Red Imported Fire Ant (RIFA) (Solenopsis invicta) and Pharaoh Ant (Monomorium pharaonis). Chitin synthesis inhibitors, such as the compounds of the invention, control ants by killing the molting larvae and/or pupae and potentially preventing the hatching of eggs. Because adult workers are not affected, control is measured by effects on the brood.
(§5) The studies involved 3-4 day exposure to bait. These limited exposure studies more accurately represent real world bait availability than continuous exposure.

Daphnia = assay: Activity against Daphnia, 48 hr exposure to treated water
Excerpt: 48 hr exposure to treated water

[8] = test system: Pharaoh Ant (Monomorium pharaonis); assay: Laboratory ant bait study, 3-4 day exposure to bait, brood reduction; settings: 0.1%, best results achieved with compound
Procedure: as §4, §5

[9] = Southeastern subterranean termite

| Structure (SMILES) | LC50 ([1]; 21 days) [ppm] | LC50 ([1]; 42 days) [ppm] | LC50, low ([2]; 21 days) | LC50, low ([2]; 42 days) | LC50 [3] [ppm] | LC90 [3] [ppm] | LT50 (days) for 200 ppm trt [4] [days] | LC50 ([4]; 21 days) [ppm] | LC50 ([4]; 35 days) [ppm] | LT50 (days) for 200 ppm trt [5] [days] | LC50 ([5]; 21 days) [ppm] | LC50 ([5]; 35 days) [ppm] | LT50 (days) for 10000 ppm treatment [6] [days] | speed of activity, Compound 1 versus hexaflumuron [6] | potency versus hexaflumuron [1] | potency versus hexaflumuron [2] | performance versus hexaflumuron [4] | activity against Daphnia versus Compound 1 or hexaflumuron (Daphnia) | speed of action versus hexaflumuron [5, 9] | other results |
| --- | --- | --- | --- | --- | --- | --- | --- | --- | --- | --- | --- | --- | --- | --- | --- | --- | --- | --- | --- | --- |
| O=C(NC(=O)c1c(F)cccc1F)Nc1cc(Cl)c(OC(F)(F)C(F)F)c(Cl)c1 [hexaflumuron, reference compound] | > 200 | > 200 | > 10,000 ppm | > 10,000 ppm | 65.7 | 333.5 | 25.7 | > 200 | < 0.78 | 16.3 | 28.8 | < 0.78 | 32.9 | comparable in speed of activity |  |  |  |  |  | Time to Achieve 50% Brood Reduction ([7]; 0.25%): 4 wks; Time to Achieve 90% Brood Reduction ([7]; 0.25%): 10 wks |
| CCN(C(=O)Nc1cc(Cl)c(OC(F)(F)C(F)C(F)(F)F)c(Cl)c1)C(=O)c1c(F)cccc1F (stereo not drawn) [Compound 2, N-[3,5-Dichloro-4-(1,1,2,3,3,3-hexafluoropropoxy)phenyl]-N'-(2,6-difluorobenzoyl)-N'-ethyl urea] | 9.3 | 5.4 | 192.0 ppm |  | 329.4 | > 1000 | 34.6 | > 200 | 22.5 |  |  |  |  |  | far superior to hexaflumuron | far more potent than hexaflumuron | no performance advantage | far less active against Daphnia than were Compound 1 or hexaflumuron |  |  |
| CCN(C(=O)NC(=O)c1c(F)cccc1F)c1cc(Cl)c(OC(F)(F)C(F)C(F)(F)F)c(Cl)c1 (stereo not drawn) [Compound 3, N-[3,5-Dichloro-4-(1,1,2,3,3,3-hexafluoro-propoxy)phenyl]-N'-(2,6-difluorobenzoyl)-N-ethylurea] | 1.3 | 0.78 | 52.2 ppm | 30.9 ppm | 78.0 | 460.7 |  |  |  | 9.7 | 62.4 | < 0.78 |  |  | far superior to hexaflumuron | far more potent than hexaflumuron | no performance advantage | far less active against Daphnia than were Compound 1 or hexaflumuron | faster acting that hexaflumuron | potency versus hexaflumuron ([5]; 21 days of exposure, Southeastern subterranean termite): more potent at 21 days of exposure |
| O=C(NC(=O)c1c(F)cccc1F)Nc1cc(Cl)c(OC(F)(F)C(F)C(F)(F)F)c(Cl)c1 (stereo not drawn) [Compound 1, N-[3,5-Dichloro-4-(1,1,2,3,3,3-hexafluoropropoxy)phenyl]-N'-(2,6-difluorobenzoyl) urea] | 14.5 | < 0.23 | < 1.0 ppm | < 1.0 ppm | 8.6 | 12.8 | 32.9 | > 200 | < 0.78 | 10.2 | 3.5 | < 0.78 | 34.5 | comparable in speed of activity | far superior to hexaflumuron | far more potent than hexaflumuron | no performance advantage |  | faster acting that hexaflumuron | LC50, high ([2]; 21 days): 52.7 ppm; LC50, high ([2]; 42 days): 30.1 ppm; activity versus hexaflumuron ([3]; fleas): far more active against fleas than was hexaflumuron; Time to Achieve 50% Brood Reduction [8]: 2 wks; Time to Achieve 90% Brood Reduction [8]: 4 wks; Time to Achieve 50% Brood Reduction ([7]; 0.1%): 2-3 wks; Time to Achieve 90% Brood Reduction ([7]; 0.1%): 4 wks; potency versus hexaflumuron ([7]; short exposure study with RIFA): significantly more potent than hexaflumuron |
